Measured values: patent publication US10004755B2 (priority 2014, dated 2018)

What was measured:
[1] = mouse, in vivo
[2] = mouse, in vivo; remark: listed apart in the source

## CCCCNc1ncc2c(-c3ccc(CN4CCN(C)CC4)cc3)cn([C@H]3CC[C@H](O)CC3)c2n1 [UNC2025A]
[1]
  oral bioavailability: orally bioavailable
[2]
  MTD (predicted dose in chow): 120 mg/kg
